Results from US8716478B2, “Boron-containing small molecules” (Anacor Pharmaceuticals, Inc., priority 2010, dated 2014).
Read-outs that look alike come from different tables or passages of the source.

How the values were obtained:
[1] = tested on: Schistosoma mansoni schistosomula; test: Schistosoma mansoni schistosomula phenotypic screen; details: for Schistosomula (juvenile infective form) worm screen phenotype, 24 h: Second Set, 5 uM; for phenotypes caused by positive control compounds in schistosomula: positive controls
Excerpt: (§1) Puerto Rican isolates of S. mansoni using Biomphalaria glabrata snails and golden hamsters as intermediate and definitive hosts, respectively, were maintained and handled in the University of California-San Francisco Sandler Center for Tropical Medicine. Patent B. glabrata snails (6-8 weeks after exposure to 5-10 infectious miracidia) were induced to shed infective larvae (cercariae) under light stimulus into the surrounding water. Cercariae were washed in rounds of ice-cold water and concentrated through and over sieves of varying pore sizes. They were then mechanically sheared (separation of heads from tails) as described in Colley D G, et al. Exp Parasitol 1974, 35:44-51, in ice-cold Incomplete Medium 169 (as described in Basch P F. J Parasitol 1981, 67:179-185, minus FBS and antibiotics) by passing 15 times through a double headed 22-gauge syringe needle connected to two 10 mL syringes. The resulting cercarial heads (schistosomula) were separated from their tails by swirling in a petri dish. Concentrated schistosomula were added to a sterile 1.5 mL centrifuge tube and allowed to settle over ice. Schistosomula were transferred to a sterile environment and washed 4 times in Incomplete Medium 169 prior to plating.
(§2) Two sets of screening were performed. In the first set, compounds were screened against schistosomula and observations were made at 24 hours, 2 days, 3 days, 4 days, and 6 days. In the second set, compounds were screened against schistosomula with observations at 24 hours, 2 days, 3 days, and 4 days and adult worms at 7 hours, 24 hours, 4 days, and 6 days.
Plates contain 200 schistosomula/well in […] complete Basch medium and were maintained at 37° C. in a 5% CO2 atmosphere. All compounds were tested in duplicate with at least two experimental replicates. Compounds and control compounds were added to the plates using the Biomek FXp using 96-well disposable tips. Final concentration of DMSO in each well was 0.5%.
(§3) A semi-quantitative and controlled nomenclature for phenotypes that can arise as a result of compound insult to both schistosomula and adults was utilized (Abdulla M H, et al., PLoS Negl Trop Dis 2009, 3:e478). Phenotypes were recorded by visual inspection and on a flexible time basis but at least at 24 h and 4 day time-points in the case of large scale screening. […] To help eliminate bias, two screen analysts scored phenotypes ‘blind’ both to knowledge of the contents of each screening plate and the phenotypes scored by his/her colleague. Upon completing their individual assessments, each analyst's ‘hit sheet’ was then compared to derive a ‘consensus hit sheet’. Discrepancies in analysts' hit sheets were re-evaluated under the microscope to eventually make a consensus hit call.
(§4) Hyper-coiled and coiled represent a verbal description of the visual phenotype as compared to the DMSO control. The + and ++ and +++ means more of the phenotype which preceded it. The − means less of the phenotype which preceded it. Results

[2] = tested on: Schistosoma mansoni adult worms; test: Schistosoma mansoni adult worm phenotypic screen; details: for phenotypes caused by positive control compounds in adult worms: positive controls
Excerpt: as §1, §2
Given the delicacy and size (0.5-1.5 cm in length) of this stage all operations were performed manually by the Sandler Center. 24-well plates were set up with compound (final DMSO concentration=0.5%) containing approximately 5 pairs of worms (S. mansoni has separate sexes) in 2 mL complete Basch medium per well. Plates were maintained at 37° C. in a 5% CO2 atmosphere. All compounds were tested in duplicate with at least two experimental replicates.
as §3, §4

Brugia malayi = Brugia malayi in vitro assay, adult female worms; details: 50 uM; trial two
Protocol: Adult female worms are shipped from TRS Labs Inc. (Nonglak Supakorndej, Lab Director, 295 Research Dr., Athens, Ga. 30605; 706-549-0764) via Fed Ex. Individual worms are shipped in 2 mls vials with RPMI on Mondays and arrive at the […] Center lab on Tuesday mornings. Individual worms are poured into each well (24-well tissue culture plates) to avoid handling worms since they are very delicate and easily broken. Transport media is removed and replaced with 0.5 mls of RPMI-1640 (25 mM HEPES, 2 g/L NaHCO3, Antibiotic/Antimycotic, 5% HI FBS). Worms are maintained in a 37° C. 5% CO2 incubator. Compounds are added directly to each duplicate well (5 ul of 5 mM for a final concentration of 50 uM). DMSO (5 ul) is used as a negative control and Ivermectin (Sigma) is used as a positive control at 100 uM/well and 20 uM/well. Adult filarial nematodes can shed/give birth to microfilarial worms (mf) during the course of the assay. Wells were reviewed for the presence of mf, and the viability of mf, by visual observation of the well on the last day of observation (Day 7). Plates are examined once a day for 4-7 days. […] If changes are observed, worms are more closely examined under a dissecting microscope.

TNF-α = test: In vivo TNF-α release in LPS treated mice; set-up: species or system Swiss Webster mice
Protocol: In vivo TNF-α release was measured in Swiss Webster mice, 10/group. Animals were dosed via oral gavage with drug 1% CMC suspension. Thirty minutes later LPS, 1.5 mg/kg was administered by intraperitoneal injection. Ninety minutes later animals were sacrificed, blood was collected by exsangination and serum prepared for analysis. TNF-α concentration was assessed by ELISA, non-drug treated animals had TNF-α levels 1000-3000 pg/mL. 6-(1-Hydroxy-1,3-dihydrobenzo[c][1,2]oxaborol-5-yloxy)-2-(2-isopropoxyethoxy)nicotinonitrile (D140) and 6-(1-hydroxy-1,3-dihydrobenzo[c][1,2]oxaborol-5-yloxy)-2-(4-oxopentyloxy)nicotinonitrile (D141) are disclosed in U.S. patent application Ser. No. 12/399,015, filed Mar. 5, 2009.

[3] = tested on: TNF-α in peripheral blood mononuclear cells (PBMCs); test: TNF-α inhibition in LPS-stimulated peripheral blood mononuclear cells; assay type: cell-based; details: PBMC
Protocol: Peripheral blood mononuclear cells (PBMCs) pooled from 10-20 donors were obtained from a local blood bank, ficoll gradient purified, and stored frozen in liquid nitrogen. Cells were thawed and seeded into 96-well plates at 5×10^5 cells/well in RPMI 1640 with 10% heat-inactivated fetal calf serum (MediaTech, Inc, Hearndon, Va., USA), Test articles were evaluated at the indicated concentrations in 150 μL media containing <2% DMSO, final, with stimulant and PBMCs. Cells were stimulated with lipopolysaccharide (LPS, phenol-extract from E. coli, Sigma-Aldrich, St. Louis, Mo.) at 1 μg/mL. Stimulation was with LPS for 24 h to measure TNF-α. Cytokines in supernatants were analyzed with a FACSArray flow cytometer (BD Biosciences, San Jose, Calif., USA) using the BD Cytometric Bead Array (CBA) Flex Set (BD Biosciences). IC50 values were calculated using the four parameter logistic equation.

human PDE4 enzyme = test: Phosphodiesterase 4 (PDE4) inhibition, semi-purified enzyme from human U937 cells; assay type: biochemical
[4] = Pharmacokinetics and oral bioavailability after IV and PO dosing; assay type: in vivo, female CD-1 mice; details: plasma; for bioavailability / AUC: female, CD-1, mouse; for bioavailability: po; for AUC: 10 mg/kg oral suspension dose; for clearance: mouse, 5 mg/kg, female CD-1 mice, intravenous
Protocol: The objective of this study was to evaluate the pharmacokinetics and oral bioavailability of PDE4 inhibitors following intravenous (IV) administration and oral (PO) doses in female CD-1 mice.
After dosing, blood samples were collected through 24 h, twice from each animal at specific times (3 mice/time point), into microcentrifuge tubes containing K2EDTA (anticoagulant), stored on wet ice and processed for plasma. The plasma samples were analyzed for concentrations of parent compound by LC/MS/MS using an internal standard/peak area method. Pharmacokinetic analysis of the mean plasma concentration-time profiles following IV and PO administration was performed.
[…] Dosing solutions for intravenous administration were prepared in 55% PEG300/25% PG/20% water. Oral dosing used a suspension prepared in 1% CMC in water with 0.1% Tween 80.
After dosing, blood samples were collected through 24 h, twice from each animal via retro-orbital bleed (˜0.1 mL, 1st time point) or cardiac puncture (˜0.6 mL, 2nd time point) at specific times (3 mice/time point), into microcentrifuge tubes containing K2EDTA (anticoagulant) and stored on wet ice prior to processing.
Plasma was prepared by centrifugation of blood samples for 6 min at approximately 2000×g or 6000 rpm at 4° C. All processed plasma samples (˜50 μL and 300 μL) were transferred to analysis tubes, placed on dry ice immediately and later stored at −80° C. until analysis for concentrations of experimental compound by LC/MS/MS.
Mouse IV clearance, Mouse Oral AUC and Oral Bioavailability are provided below. 6-(1-Hydroxy-1,3-dihydrobenzo[c][1,2]oxaborol-5-yloxy)-2-(2-isopropoxyethoxy)nicotinonitrile (D140) and 6-(1-hydroxy-1,3-dihydrobenzo[c][1,2]oxaborol-5-yloxy)-2-(4-oxopentyloxy)nicotinonitrile (D141) are disclosed in U.S. patent application Ser. No. 12/399,015, filed Mar. 5, 2009.

COc1nc(Oc2cc3c(cc2F)B(O)OC3)ccc1C#N [6-(6-Fluoro-1-hydroxy-1,3-dihydrobenzo[c][1,2]oxaborol-5-yloxy)-2-methoxynicotinonitrile]
schistosomula phenotype, 24 h ([1]; First Set, 24 h): O+
Adult worm screen phenotype, 7 h ([2]; 5 uM): O++

CC(C)OCCOc1nc(Oc2ccc3c(c2)COB3O)ccc1C#N [6-(1-hydroxy-1,3-dihydrobenzo[c][1,2]oxaborol-5-yloxy)-2-(4-isopropoxy-ethoxy)nicotinonitrile]
worm activity score / phenotype, Day 3 (Brugia malayi): 4 (highly active (controls))

N#Cc1ccc(Oc2ccc3c(c2)COB3O)nc1 [6-(1-hydroxy-1,3-dihydrobenzo[c][1,2]oxaborol-5-yloxy)nicotinonitrile]
Schistosomula (juvenile infective form) worm screen phenotype, 24 h ([1]; 24 h): R−, O,
Adult worm screen phenotype, 7 h ([2]; 5 uM): O−

N#Cc1ccc(Oc2ccc3c(c2)COB3O)nc1OC1CCCC1 [2-Cyclopentyloxy-6-(1-hydroxy-1,3-dihydro-benzo[c][1,2]oxaborol-5-yloxy)-nicotinonitrile]
Schistosomula (juvenile infective form) worm screen phenotype, 24 h ([1]; 24 h): R, O+
Adult worm screen phenotype, 7 h ([2]; 5 uM): O+
Adult worm screen phenotype, 24 h ([2]; 5 uM, 24 h): O−

CC(C)OCCOc1nc(Oc2ccc3c(c2)COB3O)c(Cl)cc1C#N [Compound D230, 5-chloro-6-(1-hydroxy-1,3-dihydrobenzo[c][1,2]oxaborol-5-yloxy)-2-(2-isopropoxyethoxy)nicotinonitrile]
% Inhibition of TNFa Blood Levels in LPS Treated Mice (TNF-α; Oral Dose 0.1 mg/kg): 39%
% Inhibition of TNFa Blood Levels in LPS Treated Mice (TNF-α; Oral Dose 0.3 mg/kg): 59%
% Inhibition of TNFa Blood Levels in LPS Treated Mice (TNF-α; Oral Dose 0.5 mg/kg): 55%
% Inhibition of TNFa Blood Levels in LPS Treated Mice (TNF-α; Oral Dose 1 mg/kg): 76%
% Inhibition of TNFa Blood Levels in LPS Treated Mice (TNF-α; Oral Dose 3 mg/kg): 80%
% Inhibition of TNFa Blood Levels in LPS Treated Mice (TNF-α; Oral Dose 5 mg/kg): 77%
% Inhibition of TNFa Blood Levels in LPS Treated Mice (TNF-α; Oral Dose 10 mg/kg): 77%
IC50 ([3]; PBMCs, LPS 1 μg/mL for 24 h, read-out: Proinflammatory TNF-α IC50): 2.5 nM
IC50 (human PDE4 enzyme; 1 μM cAMP, 20 minutes at 25° C., read-out: PDE4 IC50): 5.2 nM
bioavailability [4]: 60%
AUC [4]: 3000 ng·h/mL
clearance [4]: 36.7 mL/min/kg

O=C(C1CCCCC1)N1CC(=O)N2CCc3ccccc3C2C1 (stereo not drawn) [PZQ, reference compound]
phenotypes caused by positive control compounds in schistosomula [1]: dose-dependent, rapid and severe phenotypes
phenotypes caused by positive control compounds in adult worms [2]: dose-dependent, rapid and severe phenotypes

O=C(Nc1ccc([N+](=O)[O-])cc1Cl)c1cc(Cl)ccc1O [niclosamide, reference compound]
phenotypes caused by positive control compounds in schistosomula [1]: dose-dependent, rapid and severe phenotypes
phenotypes caused by positive control compounds in adult worms [2]: dose-dependent, rapid and severe phenotypes

CC(C)OCCOc1nc(Oc2ccc3c(c2)COB3O)ccc1C#N [Compound D140, 6-(1-Hydroxy-1,3-dihydrobenzo[c][1,2]oxaborol-5-yloxy)-2-(2-isopropoxyethoxy)nicotinonitrile]
% Inhibition of TNFa Blood Levels in LPS Treated Mice (TNF-α; Oral Dose 0.3 mg/kg): 26.4%
% Inhibition of TNFa Blood Levels in LPS Treated Mice (TNF-α; Oral Dose 0.5 mg/kg): 30%
% Inhibition of TNFa Blood Levels in LPS Treated Mice (TNF-α; Oral Dose 1 mg/kg): 50.2%
% Inhibition of TNFa Blood Levels in LPS Treated Mice (TNF-α; Oral Dose 3 mg/kg): 59.35%
% Inhibition of TNFa Blood Levels in LPS Treated Mice (TNF-α; Oral Dose 5 mg/kg): 72%
% Inhibition of TNFa Blood Levels in LPS Treated Mice (TNF-α; Oral Dose 10 mg/kg): 74%
% Inhibition of TNFa Blood Levels in LPS Treated Mice (TNF-α; Oral Dose 30 mg/kg): 83.5%
IC50 ([3]; under similar conditions, read-out: TNF-α IC50 value): 3.6 nM
IC50 (human PDE4 enzyme; under similar conditions, read-out: PDE4 IC50 value): 9 nM
Adult worm screen phenotype, 7 h ([2]; 5 uM): O++
bioavailability [4]: 24%
AUC [4]: 810 ng·h/mL
clearance [4]: 56.7 mL/min/kg

O=C(Nc1ccc(Oc2ccc(Cl)cc2)c(Cl)c1)c1cc(I)cc(I)c1O [rafoxanide, reference compound]
phenotypes caused by positive control compounds in schistosomula [1]: dose-dependent, rapid and severe phenotypes
phenotypes caused by positive control compounds in adult worms [2]: dose-dependent, rapid and severe phenotypes
